According to patent publication US20030118653A1, “Quick dissolving oral mucosal drug delivery device with moisture barrier coating” (Lavipharm Laboratories Inc., priority 2001, published 2003):

Assay: Bioavailability of sildenafil from film with water soluble inert filler
Assay type: in vivo
Conditions: incorporated in a film with water soluble inert filler xylitol
From the text: A further parameter affecting the uptake of an active agent or combination of active agents from the quick dissolving oral mucosal drug delivery devices of the present invention is the manner in which the active agent or combination of active agents is dispersed in the delivery device. For example, the active agent or combination of active agents may be dispersed as colloidal particles or be microencapsulated within the delivery device or alternatively may be mixed throughout the delivery device as a reagent during casting. In another example, the active agent can form a solid dispersion with a water soluble inert filler for purposes of increasing the solubility of the active agent when released from the inner layer thereby enhancing bioavailability of the active agent. […] In another example, a bitter active agent can form saliva insoluble complex with water insoluble polymers for the purpose of taste masking.

Compound: CCCc1nn(C)c2c(=O)[nH]c(-c3cc(S(=O)(=O)N4CCN(C)CC4)ccc3OCC)nc12 [sildenafil]
- bioavailability: enhance the bioavailability
